Data published in patent US20250288704A1, “CXCR4-LIGANDS FOR DIAGNOSTIC AND THERAPEUTIC USE AND PRECURSORS THEREOF” (priority 2021, published 2025).
Where two headings read alike, the source gives them in different places. Starred links: 1 amine or outer side, 2 acyl side, 3 side chain; linkers in the order of their positions; H or OH if unused. Positions of bridges follow the written chain, without caps; N, C: chain ends. Non-standard residues stand in square brackets, D forms with d. Residues, ends and D or L forms follow the SMILES beside them. Groups on a side chain read outwards from the residue. Chains are numbered I, II in the order given. *: point of attachment. X7 = O=C(O)CN1CCN(CC(=O)O)CCN([C@H](CCC(=O)*)C(=O)O)CCN(CC(=O)O)CC1; Benzoyl(4-SiFtBu2) = CC(C)(C)[Si](F)(c1ccc(C(=O)*)cc1)C(C)(C)C; DOTA = O=C(O)CN1CCN(CC(=O)O)CCN(CC(=O)*)CCN(CC(=O)O)CC1; Dolaproine = CO[C@@H]([C@@H]1CCCN1)[C@@H](C)C(=O)O; Dil = CC[C@H](C)[C@H](NC)[C@@H](CC(=O)O)OC; d(γGlu) = O=C(O)[C@@H](CCC(=O)[*:2])N[*:1]; X11 = O=C1CC([*:2])C(=O)N1CCCCCC(=O)[*:1]; dTyr(3-I) = N[C@H](Cc1ccc(O)c(I)c1)C(=O)O; 2Nal = N[C@@H](Cc1ccc2ccccc2c1)C(=O)O; PABC = O=C(OCc1ccc(N[*:1])cc1)[*:2]; X10 = C[C@@H](N*)[C@@H](O)c1ccccc1; dCit = NC(=O)NCCC[C@@H](N)C(=O)O; Cit = NC(=O)NCCC[C@H](N)C(=O)O; dNMeOrn = CN[C@H](CCCN)C(=O)O; NMeV = CN[C@H](C(=O)O)C(C)C; d(hCys) = N[C@H](CCS)C(=O)O; Mercaptoacetyl = O=C(CS)*; 4Abz = Nc1ccc(C(=O)O)cc1; dDap = NC[C@@H](N)C(=O)O; CO = O=C([*:1])[*:2]; Ahx = NCCCCCC(=O)O

Assays:
CXCR4 = CXCR4 (Homo sapiens, UniProt P61073); assay: Determination of IC50: competition with 125I-Fc-131 on CXCR4-positive Jurkat cells; format: binding; parameters: CXCR4-positive Jurkat T lymphocyte cells were grown in Gibco's RPMI 1640 GlutaMAX medium; endogenous in cells; host or cells: Jurkat T lymphocyte cells (whole cells in suspension, 400.000 per tube);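 further: test compound at 10^−5 to 10^−11 M competed for 2 h at 8 °C with the radioligand on 400,000 cells per well, bound versus free activity measured by γ-counting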
[1] = Octanol/PBS partition coefficient (logD7.4); format: physicochemical; details: n-octanol/PBS pH 7.4, radiolabeled compound
Procedure: The tubes were vortexed at maximum speed for 3 min to ensure equilibrium before centrifugation at 15.000×g for 5 min on a Biofuge 15 from Heraeus Holding GmbH (Osterode, Germany). An aliquot of 100 μL of each fraction was measured in the γ-counter and the log D7.4 calculated as follows: […]

[2] = Biodistribution in Jurkat tumor-bearing CB-17 SCID mice; format: in vivo; details: female, CB-17 SCID, mouse, in vivo, iv, total radioactivity, 1 h p.i., Jurkat xenograft, CB-17 SCID female mice
Procedure: All animal experiments were conducted in accordance with general animal welfare regulations in Germany and the institutional guidelines for the care and use of animals. To establish tumor xenografts, Jurkat cells (2-3×10^7 cells) were suspended in a mixture of Gibco's RPMI 1640 medium and Matrigel (1/1; v/v) from BD Biosciences (Heidelberg, Germany), and inoculated subcutaneously onto the right shoulder of 6-10 weeks old CB17-SCID mice from either Charles River GmbH (Sulzfeld, Germany) or the in-house mouse breeding facility. Mice were used when tumors had grown to a diameter of 5-8 mm (4-10 weeks after inoculation).
Approximately 0.5-20 MBq (0.02-0.20 nmol) of the ^125I-, ^177Lu-, ^99mTc-, ^18F- or ^68Ga-labeled ligand were injected into the tail vein of Jurkat tumor-bearing CB-17 SCID mice and the animals sacrificed after the respective biodistribution time. Selected organs were removed, weighted and measured in a γ-counter.

[3] = unlabeled or cold (natGa/natLu) compound vs 125I-Fc-131, Jurkat cells, read-out: IC50

Chain of CXCR4 (P61073 whole entry): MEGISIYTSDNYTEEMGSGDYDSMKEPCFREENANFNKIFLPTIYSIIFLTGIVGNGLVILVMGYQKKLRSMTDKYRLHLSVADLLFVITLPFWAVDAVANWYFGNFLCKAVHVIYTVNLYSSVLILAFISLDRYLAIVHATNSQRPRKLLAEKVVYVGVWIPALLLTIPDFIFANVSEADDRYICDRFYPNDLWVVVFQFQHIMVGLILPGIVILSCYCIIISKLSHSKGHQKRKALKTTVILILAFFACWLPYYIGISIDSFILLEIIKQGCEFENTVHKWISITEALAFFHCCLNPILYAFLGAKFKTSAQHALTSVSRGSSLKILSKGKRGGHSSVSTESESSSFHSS

C[C@@H](NC(=O)[C@@H](CCCNC(=N)N)NC(=O)[C@@H](CN)NC(=O)CN1CCN(CC(=O)O)CCN(CC(=O)O)CCN(CC(=O)O)CC1)C(=O)Nc1ccc(C(=O)NCCC[C@@H]2C(=O)N[C@@H](CCCNC(=N)N)C(=O)N[C@@H](Cc3ccc4ccccc4c3)C(=O)NCC(=O)N[C@H](Cc3ccc(O)cc3)C(=O)N2C)cc1 [CXCR4-DOTA-3] (cyclo([dY][dNMeOrn]([4Abz-dA-dR-dDap-DOTA])R[2Nal]G))
IC50 (CXCR4; [3]): 3.16 ± 0.63 nM

C[C@@H](NC(=O)[C@@H](CCCNC(=N)N)NC(=O)[C@@H](CN)NC(=O)CN1CCN(CC(=O)O)CCN(CC(=O)O)CCN(CC(=O)O)CC1)C(=O)Nc1ccc(C(=O)NCCC[C@@H]2C(=O)N[C@@H](CCCNC(=N)N)C(=O)N[C@@H](Cc3ccc4ccccc4c3)C(=O)NCC(=O)N[C@H](Cc3ccc(O)c(I)c3)C(=O)N2C)cc1 [CXCR4-DOTA-4] (cyclo([dTyr(3-I)][dNMeOrn]([4Abz-dA-dR-dDap-DOTA])R[2Nal]G))
IC50 (CXCR4; [3]): 4.64 ± 0.96 nM

C[C@@H](NC(=O)[C@@H](CCCNC(N)=O)NC(=O)[C@@H](CN)NC(=O)CN1CCN(CC(=O)O)CCN(CC(=O)O)CCN(CC(=O)O)CC1)C(=O)Nc1ccc(C(=O)NCCC[C@@H]2C(=O)N[C@@H](CCCNC(=N)N)C(=O)N[C@@H](Cc3ccc4ccccc4c3)C(=O)NCC(=O)N[C@H](Cc3ccc(O)cc3)C(=O)N2C)cc1 [CXCR4-DOTA-5] (cyclo([dY][dNMeOrn]([4Abz-dA-dCit-dDap-DOTA])R[2Nal]G))
IC50 (CXCR4; [3]): 21.3 ± 6.64 nM

CC[C@H](C)[C@@H]([C@@H](CC(=O)N1CCC[C@H]1[C@H](OC)[C@@H](C)C(=O)N[C@H](C)C(O)c1ccccc1)OC)N(C)C(=O)[C@@H](NC(=O)[C@H](C(C)C)N(C)C(=O)OCc1ccc(NC(=O)[C@H](CCCNC(N)=O)NC(=O)[C@@H](NC(=O)CCCCCN2C(=O)CC(SC[C@@H](N)C(=O)NC(CCCNC(=N)N)C(=O)N[C@H](C)C(=O)Nc3ccc(C(=O)NCCC[C@@H]4C(=O)N[C@@H](CCCNC(=N)N)C(=O)N[C@H](Cc5ccc6ccccc6c5)C(=O)NCC(=O)N[C@@H](Cc5ccc(O)cc5)C(=O)N4C)cc3)C2=O)C(C)C)cc1)C(C)C (stereo partly shown) [CXCR4-MMAE-1]
IC50 (CXCR4): 99.8 ± 7.55 nM

CC[C@H](C)[C@@H]([C@@H](CC(=O)N1CCC[C@H]1[C@H](OC)[C@@H](C)C(=O)N[C@H](C)[C@@H](O)c1ccccc1)OC)N(C)C(=O)[C@@H](NC(=O)[C@H](C(C)C)N(C)C(=O)OCc1ccc(NC(=O)[C@H](CCCNC(N)=O)NC(=O)[C@@H](NC(=O)CCCCCN2C(=O)CC(SCC[C@@H](NC(C)=O)C(=O)N[C@H](CNC(=O)CC[C@H](C(=O)O)N3CCN(CC(=O)O)CCN(CC(=O)O)CCN(CC(=O)O)CC3)C(=O)NCCCCCC(=O)N[C@H](CN)C(=O)N[C@H](CCCNC(=N)N)C(=O)N[C@H](C)C(=O)Nc3ccc(C(=O)NCCC[C@@H]4C(=O)N[C@@H](CCCNC(=N)N)C(=O)N[C@@H](Cc5ccc6ccccc6c5)C(=O)NCC(=O)N[C@H](Cc5ccc(O)cc5)C(=O)N4C)cc3)C2=O)C(C)C)cc1)C(C)C (stereo partly shown) [CXCR4-MMAE-4] (I: V[Cit][PABC][NMeV]V[Dil][Dolaproine]-X10 / II: Ac-[d(hCys)][dDap](X7)[Ahx][dDap][dR][dA][4Abz] / III: cyclo([2Nal]G[dY][dNMeOrn]R); linker I:N-II:1 via X11; amide II:C-III:4)
logD7.4 [1]: −1.04 ± 0.07 (8) | IC50 (CXCR4): 113 ± 20 nM

C[C@@H](NC(=O)[C@@H](CCCNC(=N)N)NC(=O)[C@@H](CN)NC(=O)[C@@H](CNC(=O)CC[C@H](C(=O)O)N1CCN(CC(=O)O)CCN(CC(=O)O)CCN(CC(=O)O)CC1)NC(=O)[C@@H](CNC(=O)c1ccc([Si](F)(C(C)(C)C)C(C)(C)C)cc1)NC(=O)CC[C@@H](NC(=O)N[C@H](CCC(=O)O)C(=O)O)C(=O)O)C(=O)Nc1ccc(C(=O)NCCC[C@@H]2C(=O)N[C@@H](CCCNC(=N)N)C(=O)N[C@@H](Cc3ccc4ccccc4c3)C(=O)NCC(=O)N[C@H](Cc3ccc(O)cc3)C(=O)N2C)cc1 [CXCR4-SiFA-4 [Lu]] (I: {dE-CO-d(γGlu)}-[dDap](Benzoyl(4-SiFtBu2))[dDap](X7)[dDap][dR][dA][4Abz] / II: cyclo([dY][dNMeOrn]R[2Nal]G); amide I:C-II:2)
logD7.4 [1]: −1.71 ± 0.09 (8) | IC50 (CXCR4; unlabeled or cold (natGa/natLu) compound vs 125I-Fc-131, Jurkat cells): 93.4 ± 10.2 nM

C[C@@H](NC(=O)[C@@H](CCCNC(=N)N)NC(=O)[C@@H](C)NC(=O)[C@@H](CO)NC(=O)[C@@H](CO)NC(=O)[C@@H](CO)NC(=O)CS)C(=O)Nc1ccc(C(=O)NCCC[C@@H]2C(=O)N[C@@H](CCCNC(=N)N)C(=O)N[C@@H](Cc3ccc4ccccc4c3)C(=O)NCC(=O)N[C@H](Cc3ccc(O)cc3)C(=O)N2C)cc1 [Tc-CXCR4-2] (I: Mercaptoacetyl-[dS][dS][dS][dA][dR][dA][4Abz] / II: cyclo([dY][dNMeOrn]R[2Nal]G); amide I:C-II:2)
IC50 (CXCR4): 32.4 ± 9.9 nM

C[C@@H](NC(=O)[C@@H](CCCNC(=N)N)NC(=O)[C@@H](CCCNC(=N)N)NC(=O)[C@@H](CO)NC(=O)[C@@H](CO)NC(=O)[C@@H](CO)NC(=O)CS)C(=O)Nc1ccc(C(=O)NCCC[C@@H]2C(=O)N[C@@H](CCCNC(=N)N)C(=O)N[C@@H](Cc3ccc4ccccc4c3)C(=O)NCC(=O)N[C@H](Cc3ccc(O)cc3)C(=O)N2C)cc1 [Tc-CXCR4-3] (I: Mercaptoacetyl-[dS][dS][dS][dR][dR][dA][4Abz] / II: cyclo([dY][dNMeOrn]R[2Nal]G); amide I:C-II:2)
IC50 (CXCR4): 184 ± 25.3 nM

C[C@@H](NC(=O)[C@@H](CCCNC(=N)N)NC(=O)[C@@H](Cc1ccccc1)NC(=O)[C@@H](CO)NC(=O)[C@@H](CO)NC(=O)[C@@H](CO)NC(=O)CS)C(=O)Nc1ccc(C(=O)NCCC[C@@H]2C(=O)N[C@@H](CCCNC(=N)N)C(=O)N[C@@H](Cc3ccc4ccccc4c3)C(=O)NCC(=O)N[C@H](Cc3ccc(O)cc3)C(=O)N2C)cc1 [Tc-CXCR4-4] (I: Mercaptoacetyl-[dS][dS][dS][dF][dR][dA][4Abz] / II: cyclo([dY][dNMeOrn]R[2Nal]G); amide I:C-II:2)
IC50 (CXCR4): 3490 ± 502 nM

C[C@@H](NC(=O)[C@@H](CCCNC(=N)N)NC(=O)[C@@H](Cc1c[nH]cn1)NC(=O)[C@@H](CO)NC(=O)[C@@H](CO)NC(=O)[C@@H](CO)NC(=O)CS)C(=O)Nc1ccc(C(=O)NCCC[C@@H]2C(=O)N[C@@H](CCCNC(=N)N)C(=O)N[C@@H](Cc3ccc4ccccc4c3)C(=O)NCC(=O)N[C@H](Cc3ccc(O)cc3)C(=O)N2C)cc1 [Tc-CXCR4-5] (I: Mercaptoacetyl-[dS][dS][dS][dH][dR][dA][4Abz] / II: cyclo([dY][dNMeOrn]R[2Nal]G); amide I:C-II:2)
tissue uptake at 1 h ([2]; Adrenal, read-out: % iD/g Adrenal): 0.42 %ID/g | tissue uptake at 1 h ([2]; Blood, read-out: % iD/g Blood): 0.65 %ID/g | tissue uptake at 1 h ([2]; Bone, read-out: % iD/g Bone): 1.55 %ID/g | tissue uptake at 1 h ([2]; Heart, read-out: % iD/g Heart): 0.48 %ID/g | tissue uptake at 1 h ([2]; Intestine, read-out: % iD/g Intestine): 0.76 %ID/g | tissue uptake at 1 h ([2]; Kidney, read-out: % iD/g Kidney): 2.89 %ID/g | tissue uptake at 1 h ([2]; Liver, read-out: % iD/g Liver): 2.42 %ID/g | tissue uptake at 1 h ([2]; Lung, read-out: % iD/g Lung): 1.57 %ID/g | tissue uptake at 1 h ([2]; Muscle, read-out: % iD/g Muscle): 0.15 %ID/g | tissue uptake at 1 h ([2]; Pancreas, read-out: % iD/g Pancreas): 0.4 %ID/g | tissue uptake at 1 h ([2]; Spleen, read-out: % iD/g Spleen): 8.47 %ID/g | tissue uptake at 1 h ([2]; Stomach, read-out: % iD/g Stomach): 0.7 %ID/g | tissue uptake at 1 h ([2]; Tumor, read-out: % iD/g Tumor): 1.48 %ID/g | IC50 (CXCR4): 11 ± 1.3 nM
